Test results as given in patent US20160159861A1, “APJ Receptor Compounds” (priority 2013, published 2016).
pEC50: −log10 of the molar value. Where two headings read alike, the source gives them in different places. Peptide text beside a SMILES is read from it.

Target: T1, human APJ receptor (hAPJ) (Homo sapiens, UniProt P35414)
T1 construct: expressed in transfected cells
T1 sequence (P35414 1-380): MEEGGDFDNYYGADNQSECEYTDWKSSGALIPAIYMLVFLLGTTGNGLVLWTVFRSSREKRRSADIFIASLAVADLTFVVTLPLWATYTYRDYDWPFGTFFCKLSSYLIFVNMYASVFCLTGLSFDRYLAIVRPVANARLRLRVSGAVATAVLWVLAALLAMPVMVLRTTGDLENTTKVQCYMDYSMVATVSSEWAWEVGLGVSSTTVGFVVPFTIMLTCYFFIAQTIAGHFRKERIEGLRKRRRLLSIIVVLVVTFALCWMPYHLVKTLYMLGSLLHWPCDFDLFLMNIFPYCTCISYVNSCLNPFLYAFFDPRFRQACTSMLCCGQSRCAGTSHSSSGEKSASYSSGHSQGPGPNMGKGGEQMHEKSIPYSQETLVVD
Assay: HTRF cAMP assay: inhibition of NKH477-stimulated cAMP in HEK cells stably expressing hAPJ
Assay type: cell-based
Settings: for Emax: HEK293, read-out: % IA, bound stated; for % IA (cAMP inhibition, hAPJ HEK): intrinsic activity; for Ranking: composite class of EC50 (hAPJ), % IA and % histamine or formal (+) charge; for inhibition of NKH477-stimulated increase in cAMP, dose dependent: concentration response curves, FIGS. 1 and 2, HEK cells stably expressing APJ
From the text: HTRF cAMP Assay and IP-One Assay (Cisbio)
HTRF (homogeneous time resolved fluorescence) is a technology developed by Cisbio Bioassays based on TR-FRET (time-resolved fluorescence resonance energy transfer). Cisbio Bioassays has developed a wide selection of HTRF-based assays compatible with whole cells, thereby enabling functional assays to run under more physiological conditions. The IP-One assays are competitive immunoassays using cryptate-labeled anti-IP1 monoclonal antibody and d2-labeled IP1. IP1 is a relatively stable downstream metabolite of IP3, and accumulates in cells following Gq receptor activation.
cAMP kits based on a competitive immunoassay using cryptate-labeled anti-cAMP antibody and d2-labeled cAMP were used to assay the effects of APJ compounds of the present invention. […] Cells are treated with 1 nG/mL doxycycline and seeded in all white 96 well plates @40 k/well overnight.

[1] = EC50 (cAMP inhibition, hAPJ HEK), Table 6, hAPJ HEK cells, NKH477-stimulated cAMP
[2] = EC50 (hAPJ), inhibition of cAMP production, bound stated, HTRF cAMP Assay, per data of Table 6
[3] = HTRF cAMP Assay, per data of Table 6
[4] = HTRF cAMP Assay, per data of Table 6, read-out: EC50 (hAPJ), inhibition of cAMP production, bound stated
[5] = Table 6, hAPJ HEK cells, NKH477-stimulated cAMP, read-out: EC50 (cAMP inhibition, hAPJ HEK)

pEC50 [4]	pEC50 [5]	Compound	pEC50 [1]	pEC50 [2]	Emax [3]	% IA (cAMP inhibition, hAPJ HEK) (Table 6, hAPJ HEK cells)	Ranking	inhibition of NKH477-stimulated increase in cAMP, dose dependent
–	–	CCCCCCCCCCCCCCCC(=O)N[C@H](C(=O)N[C@H](C(=O)N[C@@H](CCCCN)C(=O)N[C@@H](CCCNC(=N)N)C(=O)N[C@@H](CO)C(=O)N[C@@H](CO)C(=O)N[C@@H](CCC(=O)O)C(=O)N[C@H](CCCCN)C(=O)N[C@@H](CCCNC(=N)N)C(=O)N[C@@H](CCCNC(=N)N)C(=O)N[C@@H](CO)C(=O)N[C@@H](C)C(=O)N[C@@H](CC(=O)O)C(=O)N[C@H](C(=O)N[C@@H](Cc1ccccc1)C(=O)N[C@H](C(N)=O)[C@@H](C)CC)[C@@H](C)CC)C(C)C)[C@@H](C)O [Compound 21] (HELM PEPTIDE1{[CCCCCCCCCCCCCCCC(=O)[*:2]].T.V.K.R.S.S.E.[dK].R.R.S.A.D.I.F.I.[am]}$$$$V2.0)	8.05	≥ 7.60	≥ 80%	85%	**** (EC50≦25 nM (hAPJ), % IA≧80% and either % histamine>35% or formal (+) charge>1)	inhibited
–	–	CCCCCCCCCCCCCCCC(=O)N[C@H](C(=O)N[C@H](C(=O)N[C@@H](Cc1ccccc1)C(=O)N(C)[C@@H](CCCNC(=N)N)C(=O)N[C@@H](CO)C(=O)N[C@@H](CO)C(=O)N[C@@H](CCC(=O)O)C(=O)N[C@H](CCCCN)C(=O)N[C@@H](CCCNC(=N)N)C(=O)N[C@@H](CCCNC(=N)N)C(=O)N[C@@H](CO)C(=O)N[C@@H](C)C(=O)N[C@@H](CC(=O)O)C(=O)N[C@H](C(=O)N[C@@H](Cc1ccccc1)C(=O)N[C@H](C(N)=O)[C@@H](C)CC)[C@@H](C)CC)C(C)C)[C@@H](C)O [Compound 31] (HELM PEPTIDE1{[CCCCCCCCCCCCCCCC(=O)[*:2]].T.V.F.[meR].S.S.E.[dK].R.R.S.A.D.I.F.I.[am]}$$$$V2.0)	–	–	–	84%	** (EC50 25-50 nM (hAPJ), % IA 50-79% and either % histamine>35% or formal (+) charge>1)	–
–	–	CCCCCCCCCCCCCCCC(=O)N[C@H](C(=O)N[C@H](C(=O)N[C@@H](CC(=O)O)C(=O)N[C@@H](CCCNC(=N)N)C(=O)N[C@@H](CO)C(=O)N[C@@H](CO)C(=O)N[C@@H](CCCCN)C(=O)N[C@@H](CCC(=O)O)C(=O)N[C@H](CCCCN)C(=O)N[C@@H](CCCNC(=N)N)C(=O)N[C@@H](CCCNC(=N)N)C(=O)N[C@@H](CO)C(=O)N[C@@H](C)C(=O)N[C@@H](CC(=O)O)C(=O)N[C@H](C(=O)N[C@@H](Cc1ccccc1)C(=O)N[C@H](C(N)=O)[C@@H](C)CC)[C@@H](C)CC)C(C)C)[C@@H](C)O [Compound 7] (HELM PEPTIDE1{[CCCCCCCCCCCCCCCC(=O)[*:2]].T.V.D.R.S.S.K.E.[dK].R.R.S.A.D.I.F.I.[am]}$$$$V2.0)	8.05	7.30 to 7.60	50 to 79%	59%	*** (EC50 25-50 nM (hAPJ), % IA 50-79% and either % histamine≦35% or formal (+) charge≦1)	–
–	–	CCCCCCCCCCCCCCCC(=O)N[C@H](C(=O)N[C@H](C(=O)N[C@@H](CC(=O)O)C(=O)N(C)[C@@H](CCCNC(=N)N)C(=O)N[C@@H](CO)C(=O)N[C@@H](CO)C(=O)N[C@@H](CCC(=O)O)C(=O)N[C@H](CCCCN)C(=O)N[C@@H](CCCNC(=N)N)C(=O)N[C@@H](CCCNC(=N)N)C(=O)N[C@@H](CO)C(=O)N[C@@H](C)C(=O)N[C@@H](CC(=O)O)C(=O)N[C@H](C(=O)N[C@@H](Cc1ccccc1)C(=O)N[C@H](C(N)=O)[C@@H](C)CC)[C@@H](C)CC)C(C)C)[C@@H](C)O [Compound 32] (HELM PEPTIDE1{[CCCCCCCCCCCCCCCC(=O)[*:2]].T.V.D.[meR].S.S.E.[dK].R.R.S.A.D.I.F.I.[am]}$$$$V2.0)	7.62	≥ 7.60	≥ 80%	97%	**** (EC50≦25 nM (hAPJ), % IA≧80% and either % histamine>35% or formal (+) charge>1)	inhibited
–	–	CCCCCCCCCCCCCCCC(=O)N[C@H](C(=O)N[C@H](C(=O)N[C@@H](CC(=O)O)C(=O)N[C@@H](CCCNC(=N)N)C(=O)N[C@@H](CO)C(=O)N[C@@H](CO)C(=O)N[C@@H](CCC(N)=O)C(=O)N[C@@H](CCC(=O)O)C(=O)N[C@H](CCCCN)C(=O)N[C@@H](CCCNC(=N)N)C(=O)N[C@@H](CCCNC(=N)N)C(=O)N[C@@H](CO)C(=O)N[C@@H](C)C(=O)N[C@@H](CC(=O)O)C(=O)N[C@H](C(=O)N[C@@H](Cc1ccccc1)C(=O)N[C@H](C(N)=O)[C@@H](C)CC)[C@@H](C)CC)C(C)C)[C@@H](C)O [Compound 6] (HELM PEPTIDE1{[CCCCCCCCCCCCCCCC(=O)[*:2]].T.V.D.R.S.S.Q.E.[dK].R.R.S.A.D.I.F.I.[am]}$$$$V2.0)	7.72	7.30 to 7.60	50 to 79%	77%	*** (EC50 25-50 nM (hAPJ), % IA 50-79% and either % histamine≦35% or formal (+) charge≦1)	–
7.30 to 7.60	7.49	CCCCCCCCCCCCCCCC(=O)N[C@@H](CC(=O)O)C(=O)N[C@H](C(=O)N[C@@H](Cc1ccccc1)C(=O)N[C@@H](CCCNC(=N)N)C(=O)N[C@@H](CO)C(=O)N[C@@H](CO)C(=O)N[C@@H](CCC(=O)O)C(=O)N[C@H](CCCCN)C(=O)N[C@@H](CCCNC(=N)N)C(=O)N[C@@H](CCCNC(=N)N)C(=O)N[C@@H](CO)C(=O)N[C@@H](C)C(=O)N[C@@H](CC(=O)O)C(=O)N[C@@H](CC(N)=O)C(=O)N[C@@H](Cc1ccccc1)C(=O)N[C@H](C(N)=O)[C@@H](C)CC)C(C)C [Compound 20] (HELM PEPTIDE1{[CCCCCCCCCCCCCCCC(=O)[*:2]].D.V.F.R.S.S.E.[dK].R.R.S.A.D.N.F.I.[am]}$$$$V2.0)	–	–	50 to 79%	98%	*** (EC50 25-50 nM (hAPJ), % IA 50-79% and either % histamine≦35% or formal (+) charge≦1)	–
–	7.40	CCCCCCCCCCCCCCCC(=O)N[C@H](C(=O)N[C@H](C(=O)N[C@@H](CC(=O)O)C(=O)N[C@@H](CCCNC(=N)N)C(=O)N[C@@H](CO)C(=O)N[C@@H](CO)C(=O)N[C@@H](CCCNC(=N)N)C(=O)N[C@@H](CCC(=O)O)C(=O)N[C@H](CCCCN)C(=O)N[C@@H](CCCNC(=N)N)C(=O)N[C@@H](CCCNC(=N)N)C(=O)N[C@@H](CCC(=O)O)C(=O)N[C@@H](CO)C(=O)N[C@@H](C)C(=O)N[C@@H](CC(=O)O)C(=O)N[C@H](C(=O)N[C@@H](Cc1ccccc1)C(=O)N[C@H](C(N)=O)[C@@H](C)CC)[C@@H](C)CC)C(C)C)[C@@H](C)O [Compound 5] (HELM PEPTIDE1{[CCCCCCCCCCCCCCCC(=O)[*:2]].T.V.D.R.S.S.R.E.[dK].R.R.E.S.A.D.I.F.I.[am]}$$$$V2.0)	–	–	–	41%	* (EC50≦50 nM (hAPJ), % IA<50%)	–
7.30 to 7.60	8.30	CCCCCCCCCCCCCCCC(=O)N[C@@H](CC(=O)O)C(=O)N[C@H](C(=O)N[C@@H](Cc1ccccc1)C(=O)N[C@@H](CC(N)=O)C(=O)N[C@@H](CO)C(=O)N[C@@H](CO)C(=O)N[C@@H](CCC(=O)O)C(=O)N[C@H](CCCCN)C(=O)N[C@@H](CCCNC(=N)N)C(=O)N[C@@H](CCCNC(=N)N)C(=O)N[C@@H](CO)C(=O)N[C@@H](C)C(=O)N[C@@H](CC(=O)O)C(=O)N[C@@H](CC(N)=O)C(=O)N[C@@H](Cc1ccccc1)C(=O)N[C@H](C(N)=O)[C@@H](C)CC)C(C)C [Compound 19] (HELM PEPTIDE1{[CCCCCCCCCCCCCCCC(=O)[*:2]].D.V.F.N.S.S.E.[dK].R.R.S.A.D.N.F.I.[am]}$$$$V2.0)	–	–	50 to 79%	67%	*** (EC50 25-50 nM (hAPJ), % IA 50-79% and either % histamine≦35% or formal (+) charge≦1)	–

Compound	pEC50 [4]	pEC50 [5]	pEC50 [1]	pEC50 [2]	Emax [3]	% IA (cAMP inhibition, hAPJ HEK) (Table 6, hAPJ HEK cells)	Ranking	inhibition of NKH477-stimulated increase in cAMP, dose dependent
CCCCCCCCCCCCCCCC(=O)N[C@H](C(=O)N[C@H](C(=O)N[C@@H](CC(=O)O)C(=O)N[C@@H](CCCNC(=N)N)C(=O)N[C@@H](CO)C(=O)N[C@@H](CO)C(=O)N[C@@H](CCC(=O)O)C(=O)N[C@H](CCCCN)C(=O)N[C@@H](CCCNC(=N)N)C(=O)N[C@@H](CCCNC(=N)N)C(=O)N[C@@H](CO)C(=O)N[C@@H](C)C(=O)N[C@@H](CC(=O)O)C(=O)N[C@@H](Cc1ccc(F)cc1)C(=O)N[C@@H](Cc1ccccc1)C(=O)N[C@H](C(N)=O)[C@@H](C)CC)C(C)C)[C@@H](C)O [Compound 33, TVDRSSEkRRSAD(p-fluoro-Phe)FI] (HELM PEPTIDE1{[CCCCCCCCCCCCCCCC(=O)[*:2]].T.V.D.R.S.S.E.[dK].R.R.S.A.D.[O=C([C@H](Cc1ccc(F)cc1)N[*:1])[*:2]].F.I.[am]}$$$$V2.0)	7.30 to 7.60	7.52	–	–	50 to 79%	80%	*** (EC50 25-50 nM (hAPJ), % IA 50-79% and either % histamine≦35% or formal (+) charge≦1)	–
